Residues, ends and D or L forms follow the SMILES beside them. No end group written: not given here.
Columns and labels:
Type in all cases: cell-based
TLR4 [1] = assay: Inhibition of TLR4 signaling in thioglycollate-elicited mouse macrophages (effective concentration, overall inhibitory activity); details: for Inhibition of TLR4 signaling (overall): LPS-stimulated mouse macrophages; for Effective conc.: TLR4 pathway, thioglycollate-elicited mouse macrophages
How it was run: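 Thioglycollate-elicited peritoneal macrophages from C57BL/6J mice, adherent after overnight culture in RPMI with 2% FBS; cell-permeating (Antennapedia-fused) decoy peptides added 30 min before agonist. TLR4 stimulated with E. coli K235 LPS at 100 ng/ml final.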

TLR4 [2] = assay: LPS-induced cytokine secretion by mouse macrophages (ELISA/multiplex); details: for LPS-induced Rantes production: 6 h supernatants; for Decrease in LPS-induced cytokine production (FIG. 2, 8 panels): LPS 10 ng/ml for 5, 6 or 24 h
Description: Cytokine secretion was measured in supernatant samples collected at 6 or 24 h time points and stored at −80° C. Samples were analyzed by a multiplex assay at the University of Maryland Baltimore Cytokine Core Facility using a Luminex 100 reader and Softmax Pro software, or by ELISA kits for mouse IL-6 or TNF-α from BioLegend (San Diego, Calif.) and LT-4000 microplate reader.
A total of 2×10^6 cells was plated in 12-well plates and treated with peptides for 30 min prior to LPS stimulation. TNF-α, IL-1β, IL-6, and IFN-β were measured using ELISA kits from BioLegend (San Diego, Calif.), as recommended by the manufacturer.

TLR4 [3] = assay: LPS-induced MAPK (ERK, JNK, p38) activation in mouse macrophages (Western analysis); details: for LPS-induced ERK phosphorylation / LPS-induced JNK activation: 30 min LPS 10 ng/ml
Description: Cellular protein extracts were isolated by addition of 240 μL per well cold lysate buffer (20 mM Tris, 50 mM NaCl, 1.5 mM MgCl2, 2 mM EDTA, 10 mM NaF, 2 Mm DTT, 1 mM Na3VO4, 1% Triton). Cells were incubated with lysis solution for 30 min on agitator at 4° C. Lysate was then collected and centrifuged at 14,000 g for 10 minutes at 4° C. After quantification using BioRad protein assay, protein samples were added to Laemmli buffer and then boiled for 10 min. Samples were then resolved by SDS-10% PAGE in Tris/glycine/SDS buffer (25 mM Tris, 250 mM glycine, 0.1% SDS), and transferred onto Immobilon P transfer membranes (Millipore, Bedford, Mass.) (100 V, 1.5 h, 4° C.). Membranes were blocked for 1 h in TBS-T (20 mM Tris-HCl, 150 mM NaCl, 0.1% Tween 20) containing 5% nonfat milk, then probed for overnight at 4° C. with the respective antibodies (Abs) (dilution 1:1000 in TBS-T with 2% BSA). After washing in TBS-T, membranes were incubated with secondary HRP-conjugated, donkey anti-rabbit IgG (1:10,000 dilution in TBS-T with 5% nonfat milk) for 1 h at room temperature. Membranes washed five times in TBS-T before development with ECL reagents (GE Healthcare) according to manufacturer's directions.
HEK293T cells were transfected with indicated plasmids using Superfect Transfection Reagent (Qiagen). Twenty-four hours posttransfection, the cells were lysed using the buffer containing 20 mM HEPES (pH 7.4), 150 mM NaCl, 10 mM NaF, 2 mM Na3VO4, 1 mM EDTA, 1 mM EGTA, 0.5% Triton X-100, 0.1 M DTT, 1 mM PMSF, and protease inhibitor mixture (Roche, Indianapolis, Ind.). Rabbit Ab against phospho-ERK, phospho-JNK, MyD88 (D80F5), STAT1-Y701, total STAT1, and GAPDH were purchased from Cell Signaling Technology (Beverly, Mass.). Rabbit anti-phospho-p38 Ab was purchased from Promega (Madison, Wis.). Goat anti-TLR4 (M−16), rabbit anti-TLR4 (H-80), anti-HA-HRP (F-7), and rabbit anti-b-actin Ab were purchased from Santa Cruz Biotechnology. Mouse anti-Flag M2 and rabbit anti-HA Ab were from Sigma-Aldrich. GFP Ab (A1122) was from Invitrogen. Protein was quantified using Bio-Rad protein quantification kit. Equal amount of protein was loaded and analyzed by 10% SDS-PAGE and immunoblotting. The cell extracts containing equal amount of protein were incubated with 1 μg Ab for 2 h, followed by 4-h incubation with 25 μl protein G agarose beads (Roche); the beads were then washed four times with lysis buffer, boiled in […] sample loading buffer, and analyzed by immunoblotting.
We next examined whether TRAM peptides inhibit the TLR4-mediated p38, ERK, and JNK MAPK activation. Murine macrophages pretreated with peptides for 30 min were challenged with LPS. Cell lysates were collected 30 min post-stimulation and analyzed for MAPK phosphorylation by Western analysis. Consistent with peptide effects on steady-state mRNA, both TM4 and TM6 inhibited activation of all three MAPKs (FIG. 5C). The inhibition of MAPKs by TM4 or TM6 was long lasting; it persisted for at least 1 h after LPS stimulation (data not shown). To characterize further the effects of TRAM peptides on MAPKs, murine macrophages were treated with TRAM peptides, but not challenged by LPS.

Compound: RQIKIWFQNRRMKWKKAAYPPELRFMYYVD [TR9]
- Inhibition of TLR4 signaling (overall) (TLR4 [1]): potently inhibited
- Effective conc. (TLR4 [1]): 20 µM
- LPS-induced Rantes production (TLR4 [2]): inhibited
- Decrease in LPS-induced cytokine production (FIG. 2, 8 panels) (TLR4 [2]): statistically significant
- LPS-induced ERK phosphorylation (TLR4 [3]; 20 μM peptide): potently inhibited
- LPS-induced JNK activation (TLR4 [3]; 20 μM peptide): inhibited

Compound: RQIKIWFQNRRMKWKKGGFYQVKEAVIHY [TR11]
- Inhibition of TLR4 signaling (overall) (TLR4 [1]): potently inhibited
- Effective conc. (TLR4 [1]): 20 µM
- LPS-induced Rantes production (TLR4 [2]): inhibited
- Decrease in LPS-induced cytokine production (FIG. 2, 8 panels) (TLR4 [2]): statistically significant
- LPS-induced ERK phosphorylation (TLR4 [3]; 20 μM peptide): potently inhibited
- LPS-induced JNK activation (TLR4 [3]; 20 μM peptide): inhibited

Compound: RQIKIWFQNRRMKWKKCLQDAIDHSGFT [TF5]
- Effective conc. (TLR4 [1]): 20 µM
- LPS-induced cytokine secretion (TLR4 [2]; 5 or 20 μM peptide, LPS 100 ng/ml, supernatants 24 h): inhibit
- LPS-induced p38, ERK, and JNK MAPK activation (TLR4 [3]; lysates 30 min after LPS): inhibit

Compound: RQIKIWFQNRRMKWKKEGSQASLRCF [TR3]
- Inhibition of TLR4 signaling (overall) (TLR4 [1]): potently inhibited
- LPS-induced Rantes production (TLR4 [2]): inhibited
- Decrease in LPS-induced cytokine production (FIG. 2, 8 panels) (TLR4 [2]): statistically significant
- LPS-induced ERK phosphorylation (TLR4 [3]; 20 μM peptide): potently inhibited
- LPS-induced JNK activation (TLR4 [3]; 20 μM peptide): apparent absence of JNK inhibition

Compound: RQIKIWFQNRRMKWKKPGFLRDPWCKYQML [TR6]
- Inhibition of TLR4 signaling (overall) (TLR4 [1]): potently inhibited
- LPS-induced Rantes production (TLR4 [2]): inhibited
- Decrease in LPS-induced cytokine production (FIG. 2, 8 panels) (TLR4 [2]): statistically significant
- LPS-induced ERK phosphorylation (TLR4 [3]; 20 μM peptide): potently inhibited
- LPS-induced JNK activation (TLR4 [3]; 20 μM peptide): apparent absence of JNK inhibition
- LPS-induced activation of p38 and ERK MAPKs (TLR4 [3]; 20 μM peptide, LPS 30 min): potently inhibited

Compound: CC[C@H](C)[C@H](NC(=O)[C@H](CCCCN)NC(=O)[C@@H](NC(=O)[C@H](CCC(N)=O)NC(=O)[C@@H](N)CCCNC(=N)N)[C@@H](C)CC)C(=O)N[C@@H](Cc1c[nH]c2ccccc12)C(=O)N[C@@H](Cc1ccccc1)C(=O)N[C@@H](CCC(N)=O)C(=O)N[C@@H](CC(N)=O)C(=O)N[C@@H](CCCNC(=N)N)C(=O)N[C@@H](CCCNC(=N)N)C(=O)N[C@@H](CCSC)C(=O)N[C@@H](CCCCN)C(=O)N[C@@H](Cc1c[nH]c2ccccc12)C(=O)N[C@@H](CCCCN)C(=O)N[C@@H](CCCCN)C(=O)N[C@@H](CCC(=O)O)C(=O)N[C@@H](CC(C)C)C(=O)N[C@@H](CS)C(=O)N[C@@H](CCC(N)=O)C(=O)N[C@@H](C)C(=O)N[C@@H](CC(C)C)C(=O)N[C@@H](CO)C(=O)N[C@@H](CCCNC(=N)N)C(=O)N[C@@H](CO)C(=O)N[C@@H](Cc1c[nH]cn1)C(=O)N[C@@H](CS)C(=O)N[C@@H](CCCNC(=N)N)C(=O)O [TR5] (H-RQIKIWFQNRRMKWKKELCQALSRSHCR-OH)
- Inhibition of TLR4 signaling (overall) (TLR4 [1]): potently inhibited
- Effective conc. (TLR4 [1]): 20 µM
- LPS-induced Rantes production (TLR4 [2]): inhibited
- Decrease in LPS-induced cytokine production (FIG. 2, 8 panels) (TLR4 [2]): statistically significant
- LPS-induced ERK phosphorylation (TLR4 [3]; 20 μM peptide): potently inhibited

— US20130203649A1, “INHIBITORS OF TLR SIGNALING BY TARGETING TIR DOMAIN INTERFACES” (UNIVERSITY OF MARYLAND, BALTIMORE, priority 2012, published 2013)
